Test results reported in PubChem BioAssay AID1869 (NMMLSC, 2009).
Calls of active or inactive are those of the source. How the calls were made is not given here.

Target: Regulator of G-protein signaling 8 (Homo sapiens) (UniProt P57771)
Assay: RGS8-Galphao interaction modulators, dose response, biochemical, multiplex bead flow cytometry (AID 1869)
Conditions: bead-based flow cytometry RGS8-Galphao binding

Regulator of G-protein signaling 8 (Homo sapiens), sequence (P57771 whole entry, looked up): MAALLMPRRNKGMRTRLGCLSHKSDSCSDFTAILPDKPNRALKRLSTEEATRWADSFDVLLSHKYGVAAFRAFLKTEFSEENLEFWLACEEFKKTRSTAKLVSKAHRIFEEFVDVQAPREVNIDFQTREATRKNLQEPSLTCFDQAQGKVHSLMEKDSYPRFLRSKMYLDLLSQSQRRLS

Structure (SMILES) | EC50
CCOC(=O)C1=C(C)NC(C)=C(C(=O)OCCNC(=O)c2cccnc2)C1c1cccc([N+](=O)[O-])c1 (stereo not drawn) | > 30 µM (inactive)
CCOC(=O)/C(C(=O)Nc1ccccc1Cl)=C1/NC(C)(C)Cc2ccccc21 | > 30 µM (inactive)
O=C1CCCC2=C1C(c1cccs1)n1ncnc1N2 (stereo not drawn) | > 30 µM (inactive)
COc1ccc(Br)cc1/C=N/Nc1cccc(C(=O)O)c1 | > 30 µM (inactive)
NS(=O)(=O)c1ccc(N/N=C/c2ccc(O)c(O)c2O)c([N+](=O)[O-])c1 | 1.69 µM
CC(C)Sc1nc2ccc(N3C(=O)C4CCCCC4C3=O)cc2s1 (stereo not drawn) | > 30 µM (inactive)
CN(C)[C@@H]1C(=O)C(C(=O)NCN2CCCC2)=C(O)[C@@]2(O)C(=O)C3=C(O)c4c(O)cccc4[C@@](C)(O)C3CC12 (stereo partly drawn) | 7.06 µM
CCOC(=O)N=Nc1c(O)n(C)c2ccccc12 | > 30 µM (inactive)
O=c1[nH]c(=S)n(Cc2ccco2)c(O)c1C=NCc1cccs1 | > 30 µM (inactive)

Same assay, conditions: bead-based flow cytometry RGS8-Galphao binding; measured here: Ki for RGS8-Galphao binding

Structure (SMILES) | Ki
O=c1c2ccccc2sn1-c1ccc(S(=O)(=O)N2CCCC2)cc1 | 8.61 µM
O=C(OCC1O[C@@H](OC(=O)c2cc(O)c(O)c(O)c2)[C@@H](OC(=O)c2cc(O)c(O)c(O)c2)[C@@H](OC(=O)c2cc(O)c(O)c(O)c2)[C@@H]1OC(=O)c1cc(O)c(O)c(O)c1)c1cc(O)c(O)c(O)c1 (stereo partly drawn) | 1.05 µM
COc1ccccc1-n1c(-c2cc(-c3ccco3)[nH]n2)n[nH]c1=S | 6.97 µM
Cc1[nH]n(-c2ccccc2)c(=S)c1C=Nc1cccc([N+](=O)[O-])c1 | 1.65 µM
Cc1cc(C)c2c(=O)n(CC(=O)Nc3cccc(F)c3)sc2n1 | 6.53 µM
O=c1c2ccccc2sn1-c1cc(S(=O)(=O)N2CCOCC2)ccc1N1CCOCC1 | 4.21 µM
CCc1c(C(=O)Nc2ccccc2)c(C)[nH]c(=S)c1C#N | 7.87 µM
CN=c1scc(C)n1/N=C/c1ccc(O)c(O)c1O | 7.21 µM
CCC(=O)NC1=C(Cl)C(=O)C(NC(=O)CC)=C(Cl)C1=O | 2.83 µM
Cc1cc(C)c2c(=O)n(CC(=O)Nc3ccc(Cl)cc3)sc2n1 | 5.27 µM
CCN1/C(=C/C(C)=C/c2sc3ccccc3[n+]2CC)Sc2ccccc21 | 7.38 µM
O=C1C(Cl)=C(N2CCCCC2)C(=O)C(Cl)=C1c1cnc(N2CCCCC2)s1 | 0.95 µM
Cc1[nH]n(-c2ccccc2)c(=S)c1C=NCCCN=Cc1c(C)[nH]n(-c2ccccc2)c1=S | 4.25 µM
CCOC(=O)C1CCCN(C(=O)Cn2sc3nc(C)cc(C)c3c2=O)C1 (stereo not drawn) | 4.49 µM
COc1ccc(C2=CC(=O)C=CC2=O)cc1 | 6.01 µM
Nc1c(C(=O)NCC2CCCO2)sc2nc3c(c(-c4ccco4)c12)CC/C3=C\c1ccco1 (stereo not drawn) | 6.07 µM
CC(=O)N(O)CCCCCNC(=O)CCC(=O)N(O)CCCCCNC(=O)CCC(=O)N(O)CCCCCN | 1.89 µM
O=C(O)C[C@@H]1C(=O)O[C@@H]2C(COC(=O)c3cc(O)c(O)c(O)c3)O[C@@H](OC(=O)c3cc(O)c(O)c(O)c3)[C@@H](OC(=O)c3cc(O)c(O)c4c3[C@H]1[C@H](O)C(=O)O4)[C@H]2OC(=O)c1cc(O)c(O)c(O)c1 (stereo partly drawn) | 0.68 µM
O=C(NCCCN1CCOCC1)c1sc2cc([N+](=O)[O-])ccc2c1Cl | 2.16 µM
CCNc1ccc2noc3c2c1C(=O)c1ccccc1-3 | 20.3 µM
Cc1cccc(N2CCN(C(=O)Cn3sc4nc(C)cc(C)c4c3=O)CC2C)c1 (stereo not drawn) | 12.8 µM
COCCCNC(=O)c1ccc2c3c(onc13)-c1ccccc1C2=O | 3.52 µM
O=c1c2ccccc2sn1-c1cc(S(=O)(=O)N2CCOCC2)ccc1N1CCCC1 | 3.05 µM
Cc1ccccc1-n1sc2cc(F)ccc2c1=O | 9.64 µM
CCN(CC)S(=O)(=O)c1cccc(C(=O)N/N=C/c2ccc(O)c(O)c2O)c1 | 3.77 µM

Structure (SMILES) | Ki
NS(=O)(=O)c1ccc(N/N=C/c2ccc(O)c(O)c2O)c([N+](=O)[O-])c1 | 1.4 µM
Cc1ccc(NC(=O)Cn2sc3nc(C)cc(C)c3c2=O)c(Cl)c1 | 11.7 µM
CCN1/C(=C/C=C/C=C/c2sc3ccccc3[n+]2CC)Sc2ccccc21 | 4.71 µM
CC1(C)OC(=O)C(=Cc2ccc(-c3ccc(S(N)(=O)=O)cc3)o2)C(=O)O1 | 3.98 µM
O=C1CCC(=O)N(O)CCCCCNC(=O)CCC(=O)N(O)CCCCCNC(=O)CCC(=O)N(O)CCCCCN1 | 1.7 µM
Nc1cccnc1Sc1ccc([N+](=O)[O-])cn1 | 13.7 µM
CC(NC(=O)c1sc2cc([N+](=O)[O-])ccc2c1Cl)C(C)(C)C (stereo not drawn) | 1.63 µM
CCN=c1scc(C)n1/N=C/c1ccc(O)c(O)c1O | 19.6 µM
COC(=O)CCC(=O)Nc1sc(C)c(C)c1C(N)=O | 4.93 µM
O=C1OCC2OC(O)C(O)C(O)C2OC(=O)c2cc(O)c(O)c(O)c2-c2c(O)c(O)c3oc(=O)c4c(c(O)c(O)c5oc(=O)c2c3c54)-c2c1cc(O)c(O)c2O (stereo not drawn) | 0.5 µM
Cc1cc(Cl)ccc1N=c1ssnc1Cl | 11.9 µM
CN1CCN(C2=C(Cl)C(=O)C(c3cnc(N4CCCCC4)s3)=C(Cl)C2=O)CC1 | 0.11 µM
CN(C)S(=O)(=O)c1cccc(-n2sc3ccccc3c2=O)c1 | 3.31 µM
CCOC(=O)c1sc(NC(=O)CSc2nnc(Cc3ccccc3)o2)c(C#N)c1C | 5.55 µM
O=[N+]([O-])c1ccc(Sc2cccc[n+]2[O-])c2nonc12 | 2.54 µM
O=C(Cc1csc(N2CCOCC2)n1)N/N=C/c1ccc(O)c(O)c1O | 13.8 µM
O=c1c2ccccc2sn1-c1ccccc1 | 5.06 µM
O=C(O[C@@H]1OC2COC(=O)c3cc(O)c(O)c(O)c3-c3c(cc(O)c(O)c3O)C(=O)O[C@@H]([C@H]1O)[C@@H]2O)c1cc(O)c(O)c(O)c1 | 1.45 µM
Cc1ccc(-n2sc3ccccc3c2=O)cc1S(=O)(=O)N1CCCCC1 | 9.95 µM
CCC(=O)NC(c1ccc(C)cc1)c1cc([N+](=O)[O-])c2cccnc2c1O (stereo not drawn) | 13.7 µM
CN(C)[C@@H]1C(=O)C(C(=O)NCN2CCCC2)=C(O)[C@@]2(O)C(=O)C3=C(O)c4c(O)cccc4[C@@](C)(O)C3CC12 (stereo partly drawn) | 5.85 µM
O=C(COc1ccccc1C(=O)N/N=C\c1ccc(O)c(O)c1)N/N=C/c1ccc(O)c(O)c1 | 2.49 µM
CN(C)c1ncc(C2=C(Cl)C(=O)C(N3CCCC3)=C(Cl)C2=O)s1 | 1.11 µM
COc1ccc(OC)c(CCNC(=O)Cn2sc3nc(C)cc(C)c3c2=O)c1 | 3.85 µM
